Data as given in ChEMBL document CHEMBL1201862, “PubChem BioAssay data set” (2004).
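How tested: cells in 96-well plates exposed to compound for 48 hours at five concentrations. GI50 is the concentration that inhibits growth by half.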 Active and inactive are the calls of the source. No stated cut-off is given here; in the data, active = GI50 up to about 1.1 µM and inactive = higher.

Legend:
Experiment in all cases: NCI anticancer screen, dose series, 48 h
COLO 205 = test system: COLO 205
RPMI-8226 = test system: RPMI-8226
EKVX = test system: EKVX
HCT-116 = test system: HCT-116
K562 = test system: K562
NCI/ADR-RES = test system: NCI/ADR-RES
SK-MEL-5 = test system: SK-MEL-5
SW-620 = test system: SW-620
SK-OV-3 = test system: SK-OV-3
OVCAR-5 = test system: OVCAR-5
OVCAR-8 = test system: OVCAR-8
MDA-MB-231 = test system: MDA-MB-231
IGROV-1 = test system: IGROV-1
SF-539 = test system: SF-539
MCF7 = test system: MCF7
HL-60 = test system: HL-60
SNB-75 = test system: SNB-75
SNB-19 = test system: SNB-19
786-0 = test system: 786-0
Malme-3M = test system: Malme-3M

Structure (SMILES)	GI50 (COLO 205)	GI50 (RPMI-8226)	GI50 (EKVX)	GI50 (HCT-116)	GI50 (K562)	GI50 (NCI/ADR-RES)	GI50 (SK-MEL-5)	GI50 (SW-620)	GI50 (SK-OV-3)	GI50 (OVCAR-5)	GI50 (OVCAR-8)	GI50 (MDA-MB-231)	GI50 (IGROV-1)	GI50 (SF-539)	GI50 (MCF7)	GI50 (HL-60)	GI50 (SNB-75)	GI50 (SNB-19)	GI50 (786-0)	GI50 (Malme-3M)
CN(C)c1nc(N)nc(CCl)n1	29.2 µM (inactive)	46 µM (inactive)	18.3 µM (inactive)	54.8 µM (inactive)	29 µM (inactive)	22 µM (inactive)	29.5 µM (inactive)	28.3 µM (inactive)	56.2 µM (inactive)	65.9 µM (inactive)	35.5 µM (inactive)	27.9 µM (inactive)	13.4 µM (inactive)	26.1 µM (inactive)	40.2 µM (inactive)	19.1 µM (inactive)	0.912 µM (active)	> 100 µM (inactive)	22.3 µM (inactive)	
O=C1CS(=O)(=O)C(c2cccc(Oc3ccccc3)c2)N1C1CC1 (stereo not given)	25.2 µM (inactive)		29 µM (inactive)	25.5 µM (inactive)	50.9 µM (inactive)	28.1 µM (inactive)	18.9 µM (inactive)	60.5 µM (inactive)	33.3 µM (inactive)	62.2 µM (inactive)	38.5 µM (inactive)	75.2 µM (inactive)		50.9 µM (inactive)	22.8 µM (inactive)	30.8 µM (inactive)	24.8 µM (inactive)	50.1 µM (inactive)	37.2 µM (inactive)	> 100 µM (inactive)
O=C(CSCC(=O)N/N=C\c1ccc(O)c(O)c1O)N/N=C\c1ccc(O)c(O)c1O	23.3 µM (inactive)	2.3 µM (inactive)	21.3 µM (inactive)	3.37 µM (inactive)		1.54 µM (inactive)	18.5 µM (inactive)	3.39 µM (inactive)	31.6 µM (inactive)		2.31 µM (inactive)	16.6 µM (inactive)	19.8 µM (inactive)	7.67 µM (inactive)	3.8 µM (inactive)	15.8 µM (inactive)	2.11 µM (inactive)	29.4 µM (inactive)	2.01 µM (inactive)	22.6 µM (inactive)
O=C(C=P(c1ccccc1)(c1ccccc1)c1ccccc1)C12CC3CC(CC(C3)C1)C2	11.9 µM (inactive)	4.06 µM (inactive)	15.6 µM (inactive)	13.2 µM (inactive)	< 0.01 µM (active)	16.5 µM (inactive)	14.8 µM (inactive)	16.1 µM (inactive)		17.1 µM (inactive)	17.7 µM (inactive)	15.7 µM (inactive)	16 µM (inactive)	20 µM (inactive)	17 µM (inactive)	8.75 µM (inactive)	16.9 µM (inactive)	12.6 µM (inactive)	17.3 µM (inactive)	19.2 µM (inactive)
CC(=O)C1COC(O)C1C (stereo not given)	17 µM (inactive)	19.7 µM (inactive)	38 µM (inactive)	18.4 µM (inactive)	26.5 µM (inactive)	18.5 µM (inactive)	16 µM (inactive)	18 µM (inactive)	31 µM (inactive)	27.2 µM (inactive)	19.5 µM (inactive)	22.2 µM (inactive)	17.2 µM (inactive)	17.5 µM (inactive)	20.7 µM (inactive)	12.4 µM (inactive)	23.3 µM (inactive)	31.1 µM (inactive)	21.3 µM (inactive)	
Cn1c(=O)c2c(nc3n(Cc4ccccc4)c(=O)c(NCCCBr)cn23)n(C)c1=O	> 100 µM (inactive)	> 100 µM (inactive)	43.6 µM (inactive)	54 µM (inactive)	> 100 µM (inactive)	> 100 µM (inactive)	> 100 µM (inactive)	> 100 µM (inactive)	36.6 µM (inactive)	> 100 µM (inactive)	84.9 µM (inactive)	64.9 µM (inactive)	46.7 µM (inactive)		> 100 µM (inactive)	> 100 µM (inactive)	24.8 µM (inactive)	64.4 µM (inactive)	23.9 µM (inactive)	
CC(C)=CCC[C@](C)(O[C@@H]1O[C@H](CO)[C@@H](O)[C@H](O)[C@H]1O)[C@H]1CC[C@]2(C)[C@@H]1[C@H](O)C[C@@H]1[C@@]3(C)CC[C@H](O)C(C)(C)[C@@H]3[C@@H](O[C@@H]3O[C@H](CO)[C@@H](O)[C@H](O)[C@H]3O[C@@H]3O[C@@H](C)[C@H](O)[C@@H](O)[C@H]3O)C[C@]12C.CC(C)=CCC[C@](C)(O[C@@H]1O[C@H](CO)[C@@H](O)[C@H](O)[C@H]1O)[C@H]1CC[C@]2(C)[C@@H]1[C@H](O)C[C@@H]1[C@@]3(C)CC[C@H](O)C(C)(C)[C@@H]3[C@@H](O[C@@H]3O[C@H](CO)[C@@H](O)[C@H](O)[C@H]3O[C@@H]3O[C@H](CO)[C@@H](O)[C@H](O)[C@H]3O)C[C@]12C	> 75 µM (inactive)	> 75 µM (inactive)	> 75 µM (inactive)	> 75 µM (inactive)	> 75 µM (inactive)	> 75 µM (inactive)	> 75 µM (inactive)	> 75 µM (inactive)	> 75 µM (inactive)	> 75 µM (inactive)	34.9 µM (inactive)	> 75 µM (inactive)	> 75 µM (inactive)	> 75 µM (inactive)	> 75 µM (inactive)	> 75 µM (inactive)	> 75 µM (inactive)	> 75 µM (inactive)	> 75 µM (inactive)	
